The record followed here is patent US12122761B2, “2-azaspiro[3.4]octane derivatives as M4 agonists” (NOVARTIS AG, priority 2019, dated 2024).

The EC50 is the concentration giving half of the maximal effect.

For experiment [1], the target named is T1, human cloned CHRM4 receptor (M4_CHO cells) (Homo sapiens, UniProt P08173).
T1 construct: expressed in transfected cells; host or cells: CHO-K1
T1 sequence (P08173 1-479): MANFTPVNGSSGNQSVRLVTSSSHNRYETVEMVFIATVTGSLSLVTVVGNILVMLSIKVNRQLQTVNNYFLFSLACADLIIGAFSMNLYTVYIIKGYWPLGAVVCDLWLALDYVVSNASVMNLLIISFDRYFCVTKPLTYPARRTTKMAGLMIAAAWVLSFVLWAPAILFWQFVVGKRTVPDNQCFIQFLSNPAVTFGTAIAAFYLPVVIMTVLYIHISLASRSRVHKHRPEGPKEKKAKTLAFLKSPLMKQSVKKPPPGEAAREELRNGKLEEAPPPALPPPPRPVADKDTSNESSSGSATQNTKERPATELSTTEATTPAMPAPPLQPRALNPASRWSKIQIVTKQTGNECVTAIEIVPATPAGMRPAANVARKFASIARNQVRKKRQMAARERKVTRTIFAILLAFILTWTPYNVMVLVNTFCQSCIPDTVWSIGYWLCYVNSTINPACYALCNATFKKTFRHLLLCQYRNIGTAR
In words: CHRM4 Ca++ Flux Assay (agonist mode, FDSS 7000EX). Particulars: for Emax: Percent Activity, read-out: M4 FDSS PA; for EC50: geometric mean if tested more than once, read-out: M4 FDSS EC50. Format: cell-based. In a few lines:
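Agonist-mode response was expressed as percent of the Carbachol EC100 and fitted with four-parameter nonlinear regression over an 11-point triplicate dose series. Intracellular Ca++ was tracked for 3 min by fluorescent dye in CHO-K1 cells stably expressing human CHRM4. Cells were preincubated 60 min with 20 μM ATP in buffer containing 2.5 mM probenecid.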

The target of experiment [2] is T2, human cloned CHRM5 receptor (M5_CHO) (Homo sapiens, UniProt P08912).
T2 construct: expressed in transfected cells; host or cells: CHO (M5_CHO)
T2 sequence (P08912 1-532): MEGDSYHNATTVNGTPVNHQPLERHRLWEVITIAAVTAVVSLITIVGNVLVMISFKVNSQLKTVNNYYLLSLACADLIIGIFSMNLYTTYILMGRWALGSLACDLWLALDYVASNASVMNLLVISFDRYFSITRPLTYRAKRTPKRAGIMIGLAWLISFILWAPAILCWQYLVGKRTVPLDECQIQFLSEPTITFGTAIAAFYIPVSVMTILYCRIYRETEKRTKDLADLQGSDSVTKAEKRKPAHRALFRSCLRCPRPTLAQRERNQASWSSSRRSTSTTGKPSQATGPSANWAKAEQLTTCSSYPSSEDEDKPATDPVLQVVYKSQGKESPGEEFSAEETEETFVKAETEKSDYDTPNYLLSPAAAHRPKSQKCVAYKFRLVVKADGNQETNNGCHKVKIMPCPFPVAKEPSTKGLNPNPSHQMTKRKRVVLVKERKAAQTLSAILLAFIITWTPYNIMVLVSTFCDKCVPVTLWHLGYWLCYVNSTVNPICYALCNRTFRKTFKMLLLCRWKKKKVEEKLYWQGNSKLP
Nature of the experiment: CHRM5 Ca++ Flux Assay (agonist mode, FDSS 7000EX). The class given is cell-based. Particulars: for Emax: Percent Activity measured to EC100 of Carbachol, read-out: M5 FDSS PA; for EC50: agonist mode, geometric mean if tested more than once, read-out: M5 FDSS EC50. A digest of the protocol:
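Agonist-mode calcium flux: 11-point dose responses, triplicate wells, fluorescence followed for 3 minutes. Cells are M3_CHO or M5_CHO lines (human receptors) with Ca++ indicator in probenecid-containing HEPES/HBSS buffer. Percent activity is referenced to carbachol EC100, and curves come from four-parameter nonlinear regression.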

Bounds are passed on as bounds.

Take `COc1ccccc1C1CCN([C@@H]2CCC3(C2)CN(c2ncon2)C3)CC1` [Example 4A, (R)-3-(6-(4-(2-methoxyphenyl)piperidin-1-yl)-2-azaspiro[3.4]octan-2-yl)-1,2,4-oxadiazole]: the values for the Emax in experiment [1] and in experiment [2] were 77% and 6%, respectively. In addition, the EC50 was below 0.4 nM in experiment [1] and 700 nM in experiment [2].
Regarding `COc1ccccc1C1CCN([C@@H]2CCC3(C2)CN(c2cncnc2)C3)CC1` [Example 5A, (R)-6-(4-(2-methoxyphenyl)piperidin-1-yl)-2-(pyrimidin-5-yl)-2-azaspiro[3.4]octane], in experiment [1], the Emax worked out at 64% and the concentration giving a half-maximal response (EC50) is 2 nM. Moreover, in experiment [2], the Emax worked out at 0% and the EC50 was above 25000 nM.
`CC(C)(O)COc1ccccc1C1CCN([C@@H]2CCC3(C2)CN(c2cncnc2)C3)CC1` [Example 5B, (R)-2-methyl-1-(2-(1-(2-(pyrimidin-5-yl)-2-azaspiro[3.4]octan-6-yl)piperidin-4-yl)phenoxy)propan-2-ol]: the results for the Emax in experiment [1] and in experiment [2] were 53% and 0%, respectively. In addition, the values for the concentration giving a half-maximal response (EC50) in experiment [1] and in experiment [2] were 4 nM and above 25000 nM, respectively.
`Cc1ncncc1N1CC2(CC[C@@H](N3CCC(c4ccccc4OCC(C)(C)O)CC3)C2)C1` [Example 5C, (R)-2-methyl-1-(2-(1-(2-(4-methylpyrimidin-5-yl)-2-azaspiro[3.4]octan-6-yl)piperidin-4-yl)phenoxy)propan-2-ol]: the figures for the Emax in experiment [1] and in experiment [2] were 6% and 0%, respectively. The EC50 in experiment [1] and in experiment [2] was above 25000 nM in each case.
For the molecule `COc1ccccc1C1CCN([C@@H]2CCC3(C2)CN(c2ccc(C)nc2)C3)CC1` [Example 5D, (R)-6-(4-(2-methoxyphenyl)piperidin-1-yl)-2-(6-methylpyridin-3-yl)-2-azaspiro[3.4]octane], the Emax turned out to be 36% in experiment [1] and 0% in experiment [2]. The EC50 was 156 nM in experiment [1] and above 25000 nM in experiment [2].
For the molecule `COc1ccccc1C1CCN([C@@H]2CCC3(C2)CN(c2cnc(C)nc2)C3)CC1` [Example 5E, (R)-6-(4-(2-methoxyphenyl)piperidin-1-yl)-2-(2-methylpyrimidin-5-yl)-2-azaspiro[3.4]octane], in experiment [1], the Emax was 2% and the EC50 is above 25000 nM. Besides, in experiment [2], the Emax worked out at 0% and the EC50 is above 25000 nM.
For the molecule `COc1ccccc1C1CCN([C@@H]2CCC3(C2)CN(c2cncc(F)c2)C3)CC1` [Example 5F, (R)-2-(5-fluoropyridin-3-yl)-6-(4-(2-methoxyphenyl)piperidin-1-yl)-2-azaspiro[3.4]octane], in experiment [1], the Emax turned out to be 59% and the EC50 came to 6 nM. Also, in experiment [2], the Emax is 17% and the EC50 is 14300 nM.
Consider `COc1ccccc1C1CCN([C@@H]2CCC3(C2)CN(c2cncc(C)n2)C3)CC1` [Example 5G, (R)-6-(4-(2-methoxyphenyl)piperidin-1-yl)-2-(6-methylpyrazin-2-yl)-2-azaspiro[3.4]octane], for which the Emax is 1% in experiment [1] and 0% in experiment [2]. The EC50 in experiment [1] and in experiment [2] was above 25000 nM throughout.
`COc1ccccc1C1CCN([C@@H]2CCC3(C2)CN(c2cnccn2)C3)CC1` [Example 5H, (R)-6-(4-(2-methoxyphenyl)piperidin-1-yl)-2-(pyrazin-2-yl)-2-azaspiro[3.4]octane]: in experiment [1], the Emax is 61% and the EC50 worked out at 1 nM. For the same molecule, in experiment [2], the Emax came out at 0% and the 50% effective concentration (EC50) is above 25000 nM.
For the molecule `COc1ccccc1C1CCN([C@@H]2CCC3(C2)CN(c2nccnc2C(F)(F)F)C3)CC1` [Example 5I, (R)-6-(4-(2-methoxyphenyl)piperidin-1-yl)-2-(3-(trifluoromethyl)pyrazin-2-yl)-2-azaspiro[3.4]octane], in experiment [1], the Emax was 16% and the EC50 turned out to be 84 nM. Also, in experiment [2], the Emax turned out to be 0% and the EC50 is above 25000 nM.
`COc1ccccc1C1CCN([C@@H]2CCC3(C2)CN(c2nccnc2C)C3)CC1` [Example 5J, (R)-6-(4-(2-methoxyphenyl)piperidin-1-yl)-2-(3-methylpyrazin-2-yl)-2-azaspiro[3.4]octane]: the results for the Emax in experiment [1] and in experiment [2] were 60% and 0%, respectively. In addition, the figures for the EC50 in experiment [1] and in experiment [2] were 9 nM and above 25000 nM, respectively.
In the case of `COc1ccccc1C1CCN([C@@H]2CCC3(C2)CN(c2cccnc2)C3)CC1` [Example 5K, (R)-6-(4-(2-methoxyphenyl)piperidin-1-yl)-2-(pyridin-3-yl)-2-azaspiro[3.4]octane], the Emax in experiment [1] was found to be 64%; in experiment [2], 0%. Moreover, the concentration giving a half-maximal response (EC50) in experiment [1] is 9 nM; in experiment [2], above 25000 nM.
Regarding `Cc1ccc(N2CC3(CC[C@@H](N4CCC(c5ccccc5O[C@@H]5CCOC5)CC4)C3)C2)cn1` [Example 5L, (R)-2-(6-methylpyridin-3-yl)-6-(4-(2-(((R)-tetrahydrofuran-3-yl)oxy)phenyl)piperidin-1-yl)-2-azaspiro[3.4]octane], in experiment [1], the Emax was found to be 61% and the EC50 was 29 nM. Besides, in experiment [2], the Emax worked out at 17% and the 50% effective concentration (EC50) worked out at 14400 nM.
As to `COc1ccccc1C1CCN([C@@H]2CCC3(C2)CN(c2ncnc(C)n2)C3)CC1` [Example 5M, (R)-6-(4-(2-methoxyphenyl)piperidin-1-yl)-2-(4-methyl-1,3,5-triazin-2-yl)-2-azaspiro[3.4]octane], in experiment [1], the Emax amounted to 43% and the EC50 was determined as 51 nM. Also, in experiment [2], the Emax turned out to be 0% and the EC50 is above 25000 nM.
As for `COc1ccccc1C1CCN([C@@H]2CCC3(C2)CN(c2ccc(Cl)nn2)C3)CC1` [Example 5N, (R)-2-(6-chloropyridazin-3-yl)-6-(4-(2-methoxyphenyl)piperidin-1-yl)-2-azaspiro[3.4]octane], in experiment [1], the Emax was found to be 50% and the EC50 is 26 nM. In experiment [2], the Emax worked out at 8% and the EC50 was 22900 nM.
With `COc1ccccc1C1CCN([C@@H]2CCC3(C2)CN(c2cccnn2)C3)CC1` [Example 5O, (R)-6-(4-(2-methoxyphenyl)piperidin-1-yl)-2-(pyridazin-3-yl)-2-azaspiro[3.4]octane], in experiment [1], the Emax came out at 39% and the EC50 came out at 55 nM. In experiment [2], the Emax turned out to be 0% and the EC50 is above 25000 nM.
Regarding `COc1ccc(Cl)cc1C1CCN([C@@H]2CCC3(C2)CN(c2ccnnc2)C3)CC1` [Example 5P, (R)-6-(4-(5-chloro-2-methoxyphenyl)piperidin-1-yl)-2-(pyridazin-4-yl)-2-azaspiro[3.4]octane], the Emax in experiment [1] was found to be 55%; in experiment [2] it was 8%. Besides, the EC50 in experiment [1] turned out to be 43 nM; in experiment [2], 13400 nM.
As to `c1ccc(C2CCN([C@@H]3CCC4(C3)CN(c3ncncn3)C4)CC2)c(OCC2CCOCC2)c1` [Example 5Q, (R)-6-(4-(2-((tetrahydro-2H-pyran-4-yl)methoxy)phenyl)piperidin-1-yl)-2-(1,3,5-triazin-2-yl)-2-azaspiro[3.4]octane], in experiment [1], the Emax was determined as 54% and the EC50 was determined as 21 nM. For the same molecule, in experiment [2], the Emax was found to be 0% and the EC50 is above 25000 nM.
On to `COc1ccccc1C1CCN([C@@H]2CCC3(C2)CN(c2cc(Cl)nnc2Cl)C3)CC1` [Example 5R, (R)-2-(3,6-dichloropyridazin-4-yl)-6-(4-(2-methoxyphenyl)piperidin-1-yl)-2-azaspiro[3.4]octane], for which, in experiment [1], the Emax stood at 51% and the EC50 worked out at 131 nM. In experiment [2], the Emax turned out to be 1% and the EC50 is above 25000 nM.
In the same order, the values of `COc1ccccc1C1CCN([C@@H]2CCC3(C2)CN(c2ccnnc2)C3)CC1` [Example 5S, (R)-6-(4-(2-methoxyphenyl)piperidin-1-yl)-2-(pyridazin-4-yl)-2-azaspiro[3.4]octane] are 55%, 129 nM, 0% and above 25000 nM.
